# Test results as given in patent US20230293469A1, “NOVEL PHARMACEUTICAL COMPOSITIONS” (NEUROPRO THERAPEUTICS, INC., priority 2020, published 2023).
# Several values for one entry are separate records, joined by “and”; a condition that tells them apart may be missing. Identical values can stand only once. Like-named read-outs stand apart in the source and are kept apart here.
# Experiments:
# Microsomes = experiment: Proposed metabolite structures and biotransformation pathways (rat, dog, human microsomes); format: in vitro ADME; conditions: rat, dog, human microsomes, 10 uM, 1 hour
# Procedure: Incubation of Test Compound in Microsomes • 1. Compound final concentration: 10 uM. • 2. Microsomes concentration 1 mg/mL. • 3. Incubate for 1 hour, with an NADPH regenerating system. • 4. 0.5 mL of incubation mixture at 0 min and 1 hour, mixed with 0.5 mL of acetonitrile. • 5. Vortex, and centrifuge at 13200 rpm for 10 min. • 6. Supernatant was transferred to a clean vial for LCMS analysis NADPH regenerating system (cofactor; consisting of NADP [0.340 mg/mL], G6P [1.56 mg/mL], and G6PDH [0.4 U/mL] solutions)
# LC-MS/MS Method: • HPLC Column: Agilent, Polaris 3 C18-A, 150×2.0 mm (S/N: 533819), made in Netherlands. • Guard Column: Agilent, MonoChrom 3 C18 MetaGuard, 10×2.0 mm (S/N: 556145) • Column temperature: 40° C. • Mobile Phase A: 5 mM ammonium format in water (Optima) • Mobile Phase B: acetonitrile (Optima) • Flow rate: 0.2 mL/min • Gradient (Table on right) • MS: Thermo Q Exactive Plus.
# Summary of Proposed Metabolite Structures and Biotransformation Pathway
# Rat Microsomes = experiment: Metabolite screening of NPT-2042 in rat microsomes; format: in vitro ADME; conditions: NPT-2042 10 uM, microsomes 1 mg/mL
# Procedure: (§1) Incubation of Test Compound in Microsomes • 1. Compound final concentration: 10 uM. • 2. Microsomes concentration 1 mg/mL. • 3. Incubate for 1 hour, with an NADPH regenerating system. • 4. 0.5 mL of incubation mixture at 0 min and 1 hour, mixed with 0.5 mL of acetonitrile. • 5. Vortex, and centrifuge at 13200 rpm for 10 min. • 6. Supernatant was transferred to a clean vial for LCMS analysis NADPH regenerating system (cofactor; consisting of NADP [0.340 mg/mL], G6P [1.56 mg/mL], and G6PDH [0.4 U/mL] solutions) LC-MS/MS Method: • HPLC Column: Agilent, Polaris 3 […], 150×2.0 mm (S/N: 533819), made in Netherlands. • Guard Column: Agilent, MonoChrom 3 C18 MetaGuard, 10×2.0 mm (S/N: 556145) • Column temperature: 40° C. • Mobile Phase A: 5 mM ammonium format in water (Optima) • Mobile Phase B: acetonitrile (Optima) • Flow rate: 0.2 mL/min • Gradient (Table on right) • MS: Thermo Q Exactive Plus.
# Human Microsomes = experiment: Metabolite screening of NPT-2042 in human microsomes; format: in vitro ADME; conditions: NPT-2042 10 uM, microsomes 1 mg/mL
# Procedure: as §1
# [1] = Oral dose PK of NPT-2042 in rat; format: in vivo
# Procedure: (§2) Assays were performed to determine absolute bioavailability of NPT2042 in two species: dog and rat. The calculation of absolute bioavailability depends on four inputs: the areas under the curves (AUC) for oral and IV, and the oral and IV doses.
# Testing was conducted to determine AUCs for an oral dose in rat.
# [2] = IV bolus PK of NPT-2042 in rat; format: in vivo; conditions: IV bolus 10 mg/kg
# Dog Microsomes = experiment: Metabolite screening of NPT-2042 in dog microsomes; format: in vitro ADME; conditions: NPT-2042 10 uM, microsomes 1 mg/mL
# Procedure: as §1
# [3] = Oral dose PK of NPT2042 in dog (AUC for absolute bioavailability); format: in vivo
# Procedure: as §2
# Testing was conducted to determine AUCs for an oral dose in dog.
# Two dogs were each dosed 30 mg/kg NPT2042 orally, on two different days.
# [4] = 1 hour, NADPH regenerating system
# [5] = plasma, NPT-2042, rat, oral 30 mg/kg
# [6] = rat, oral, dose column 30 mg/kg, individual rats and Mean (N=3)
# [7] = rat, oral, dose column 30 mg/kg, individual rats and Mean (N=3), mean
# [8] = rat, individual rats and Mean (N=3), 10 mg/kg
# [9] = rat, individual rats and Mean (N=3), 10 mg/kg, mean
# [10] = NPT2042, dog, oral 30 mg/kg, animals D0001, D0601, Mean, 30 mg/kg
# [11] = NPT2042, dog, oral 30 mg/kg, animals D0001, D0601, Mean, 30 mg/kg, mean
# [12] = dog, in vivo, po, 30 mg/kg, NPT2042, dog, oral 30 mg/kg, animals D0001, D0601, Mean
smiles,measurement,setting,value
"CCCCNc1cc(C(=O)N(Cc2ccccc2)Cc2ccccc2)cc(S(N)(=O)=O)c1Oc1ccccc1 [NPT-2042, N,N-Dibenzyl 3-Aminosulfonyl-5-butylamino-4-phenoxybenzamide]",Major biotransformation pathways,Microsomes,"De-alkylation, Mono-oxidation, and Mono-oxidation and De-alkylation"
same,Rat Mic (MS Intensity),Rat Microsomes; [4],7.73E+07
same,Rat Mic (MS Intensity),Rat Microsomes; T = 0,4.15E+08
same,Human Mic (MS Intensity),Human Microsomes; [4],1.64E+08
same,Human Mic (MS Intensity),Human Microsomes; T = 0,3.71E+08
same,half-life,"[1]; in vivo, NPT-2042, rat, oral 30 mg/kg, read-out: t½ (converted)",2.61 h
same,bioavailability,"[1]; in vivo, rat, oral 30 mg/kg vs IV 10 mg/kg, read-out: Fabs (%), absolute bioavailability",0.34%
same,AUC(0-inf),[1]; [5],35.4 ng·h/mL
same,Cmax,[1]; [5],4.56 ng/mL
same,Tmax,[1]; [5],4 h
same,concentration at 0.5 h,"[1]; rat, in vivo, oral, 30 mg/kg, rat, oral, dose column 30 mg/kg, individual rats and Mean (N=3), read-out: NPT-2042 concentration, Time 0.50 h",2.01 ng/mL
same,concentration at 2 h,"[1]; rat, in vivo, oral, 30 mg/kg, rat, oral, dose column 30 mg/kg, individual rats and Mean (N=3), read-out: NPT-2042 concentration, Time 2.00 h",4 ng/mL
same,concentration at 4 h,"[1]; rat, in vivo, oral, 30 mg/kg, rat, oral, dose column 30 mg/kg, individual rats and Mean (N=3), read-out: NPT-2042 concentration, Time 4.00 h",3.52 ng/mL
same,concentration at 6 h,"[1]; rat, in vivo, oral, 30 mg/kg, rat, oral, dose column 30 mg/kg, individual rats and Mean (N=3), read-out: NPT-2042 concentration, Time 6.00 h",3.99 ng/mL
same,concentration at 12 h,"[1]; rat, in vivo, oral, 30 mg/kg, rat, oral, dose column 30 mg/kg, individual rats and Mean (N=3), read-out: NPT-2042 concentration, Time 12.00 h",0.78 ng/mL
same,"Fabs (ratio), absolute bioavailability","[1]; rat, oral 30 mg/kg vs IV 10 mg/kg",0.0034
same,"NPT-2042 concentration, Time 0.50 h",[1]; [6],1.29 ng/mL and 1.67 ng/mL
same,"NPT-2042 concentration, Time 1.00 h",[1]; [6],2.14 ng/mL and 4.70 ng/mL and 2.45 ng/mL
same,"NPT-2042 concentration, Time 2.00 h",[1]; [6],2.88 ng/mL and 3.60 ng/mL
same,"NPT-2042 concentration, Time 4.00 h",[1]; [6],5.42 ng/mL and 4.73 ng/mL
same,"NPT-2042 concentration, Time 6.00 h",[1]; [6],2.49 ng/mL and 4.15 ng/mL
same,"NPT-2042 concentration, Time 8.00 h",[1]; [6],1.57 ng/mL and 2.57 ng/mL and 3.20 ng/mL
same,"NPT-2042 concentration, Time 12.00 h",[1]; [6],0.715 ng/mL and 0.731 ng/mL
same,"NPT-2042 concentration, Time 0.50 h",[1]; [7],1.66 ng/mL
same,"NPT-2042 concentration, Time 1.00 h",[1]; [7],3.10 ng/mL
same,"NPT-2042 concentration, Time 2.00 h",[1]; [7],3.49 ng/mL
same,"NPT-2042 concentration, Time 4.00 h",[1]; [7],4.56 ng/mL
same,"NPT-2042 concentration, Time 6.00 h",[1]; [7],3.54 ng/mL
same,"NPT-2042 concentration, Time 8.00 h",[1]; [7],2.45 ng/mL
same,"NPT-2042 concentration, Time 12.00 h",[1]; [7],0.742 ng/mL
same,clearance,"[2]; in vivo, NPT-2042, rat",48 mL/min/kg
same,Vd,"[2]; in vivo, NPT-2042, rat, read-out: Vz",10.8 L/kg
same,half-life,"[2]; in vivo, NPT-2042, rat, read-out: t½ (converted)",2.61 h
same,AUC(0-inf),"[2]; plasma, NPT-2042, rat",3470 ng·h/mL
same,Cmax,"[2]; plasma, NPT-2042, rat",2510 ng/mL
same,Tmax,"[2]; plasma, NPT-2042, rat",4.8 min
same,"NPT-2042 concentration, Time 0.08 h",[2]; [8],3080 ng/mL and 2720 ng/mL
same,"NPT-2042 concentration, Time 1.00 h",[2]; [8],250 ng/mL and 1190 ng/mL and 924 ng/mL
same,"NPT-2042 concentration, Time 2.00 h",[2]; [8],477 ng/mL and 421 ng/mL
same,"NPT-2042 concentration, Time 4.00 h",[2]; [8],205 ng/mL and 218 ng/mL
same,"NPT-2042 concentration, Time 6.00 h",[2]; [8],203 ng/mL and 145 ng/mL and 60.8 ng/mL
same,"NPT-2042 concentration, Time 8.00 h",[2]; [8],20.0 ng/mL and 33.1 ng/mL and 87.3 ng/mL
same,"NPT-2042 concentration, Time 12.00 h",[2]; [8],60.8 ng/mL and 18.6 ng/mL and 4.67 ng/mL
same,"NPT-2042 concentration, Time 24.00 h",[2]; [8],0.257 ng/mL and 0.582 ng/mL and 1.95 ng/mL
same,"NPT-2042 concentration, Time 0.08 h",[2]; [9],2510 ng/mL
same,"NPT-2042 concentration, Time 1.00 h",[2]; [9],788 ng/mL
same,"NPT-2042 concentration, Time 2.00 h",[2]; [9],405 ng/mL
same,"NPT-2042 concentration, Time 4.00 h",[2]; [9],196 ng/mL
same,"NPT-2042 concentration, Time 6.00 h",[2]; [9],136 ng/mL
same,"NPT-2042 concentration, Time 8.00 h",[2]; [9],46.8 ng/mL
same,"NPT-2042 concentration, Time 12.00 h",[2]; [9],28.0 ng/mL
same,"NPT-2042 concentration, Time 24.00 h",[2]; [9],0.930 ng/mL
same,concentration at 0.08 h,"[2]; rat, plasma, iv, 10 mg/kg, rat, individual rats and Mean (N=3), read-out: NPT-2042 concentration, Time 0.08 h",1720 ng/mL
same,concentration at 2 h,"[2]; rat, plasma, iv, 10 mg/kg, rat, individual rats and Mean (N=3), read-out: NPT-2042 concentration, Time 2.00 h",317 ng/mL
same,concentration at 4 h,"[2]; rat, plasma, iv, 10 mg/kg, rat, individual rats and Mean (N=3), read-out: NPT-2042 concentration, Time 4.00 h",165 ng/mL
same,Dog Mic (MS Intensity),Dog Microsomes; [4],1.85E+08
same,Dog Mic (MS Intensity),Dog Microsomes; T = 0,3.79E+08
same,AUCinf,[3]; [10],1520 ng·h/mL
same,AUClast,[3]; [10],1450 ng·h/mL
same,CL/F,[3]; [10],328 mL/min/kg
same,Cmax,[3]; [10],153 ng/mL
same,t½,[3]; [10],4.72 h
same,AUCinf,[3]; [11],1440 ng·h/mL
same,AUClast,[3]; [11],1390 ng·h/mL
same,CL/F,[3]; [11],347 mL/min/kg
same,Cmax,[3]; [11],152 ng/mL
same,t½,[3]; [11],4.16 h
same,AUC(0-inf),[3]; [12],1360 ng·h/mL
same,AUC(0-t),[3]; [12],1340 ng·h/mL
same,CL/F,"[3]; dog, in vivo, po, 30 mg/kg, NPT2042, dog, oral 30 mg/kg, animals D0001, D0601, Mean, read-out: CL/F (converted)",367 mL/min/kg
same,Cmax,"[3]; dog, in vivo, po, 30 mg/kg, NPT2042, dog, oral 30 mg/kg, animals D0001, D0601, Mean, read-out: Cmax",151 ng/mL
same,Vd/F,"[3]; dog, in vivo, po, 30 mg/kg, NPT2042, dog, oral 30 mg/kg, animals D0001, D0601, Mean, read-out: Vz/F",115 L/kg
same,half-life,"[3]; dog, in vivo, po, 30 mg/kg, NPT2042, dog, oral 30 mg/kg, animals D0001, D0601, Mean, read-out: t½ (converted)",3.61 h
same,Absolute bioavailability (AUCpo/AUCiv)*(Doseiv/Dosepo),"[3]; dog, oral 30 mg/kg vs IV 10 mg/kg, as fraction",0.0509
same,Tmax,"[3]; in vivo, NPT2042, dog, oral 30 mg/kg, animals D0001, D0601, Mean",6 h
same,bioavailability,"[3]; in vivo, dog, oral 30 mg/kg vs IV 10 mg/kg",5.1%
